Entries after “also recorded” stand apart in the source; their conditions may differ.
What was measured:
HT-29 cells [1] = experiment: Cellular SAMe and MTA levels in HT-29 cells; format: cell-based, human
Protocol: (§1) HT-29 and RKO cells were obtained from the Cell Culture Core of the USC Liver Disease Research Center and grown according to instructions provided by the American Type Culture Collection (ATCC, Rockville, Md.). Prior to treatment with growth factors, SAMe or MTA, medium was changed to 0.1% FBS overnight.
(§2) Cellular SAMe and MTA levels were measured (51) and polyamine levels were determined (52).

HT-29 cells [2] = experiment: Polyamine levels in HT-29 cells; format: cell-based, human; conditions: 6 hrs
Protocol: as §1, §2

[3] = test system: ornithine decarboxylase (ODC); experiment: ODC expression by real-time PCR in HT-29 cells; format: cell-based, human; conditions: 6 hrs
SPD syn = SPD syn expression by real-time PCR in HT-29 cells; format: cell-based, human; conditions: 6 hrs
[4] = test system: spermine synthase (SPM syn); experiment: SPM syn expression by real-time PCR in HT-29 cells; format: cell-based, human; conditions: 6 hrs
c-FLIP = c-FLIP mRNA level by real-time PCR in HT-29 cells; format: cell-based, human; conditions: SAMe 2 mM, MTA 1 mM, 6 hrs, mean±SE
Bcl-xL = Bcl-xL mRNA level in HT-29 cells; format: cell-based, human; conditions: SAMe 2 mM, 6 hrs
Protocol: (§3) SAMe and MTA induce apoptosis in liver cancer cells by the mitochondrial pathway (14). […] In liver cancer cells, SAMe and MTA induced selectively expression of Bcl-xs, a pro-apoptotic protein (67). We examined whether the same occurs in HT-29 cells. After 6 hrs of MTA (1 mM) treatment, Bcl-xL mRNA level fell by 53% (47±4% of control, results are mean±SE from 4 experiments, p<0.0005). […] This makes these agents particularly attractive in targeting colon cancer cells.

Bcl-xS = Bcl-xS mRNA level in HT-29 cells; format: cell-based, human; conditions: 6 hrs
Protocol: as §3

[5] = Intestinal SAMe levels in mice given SAMe or MTA in drinking water; conditions: mouse, in vivo
Protocol: (§4) Three-month old male C57/B6 mice were fed ad libitum a standard diet (Harland Tekiad irradiated mouse diet 7912, Madison, Wis.), caged individually and had free access to water supplemented with SAMe ([…]), MTA (75 mg/kg/d), phosphate buffered saline (vehicle for SAMe) or DMSO (0.2%, vehicle for MTA) for 6 days. SAMe and MTA were made fresh daily. The amount of water intake, body weight, and animal behavior were closely monitored. After 6 days, animals were sacrificed, intestine was cut open along the longitudinal axis, and mucosa was stripped from the intestine (46). Mucosa was weighed and a portion processed for SAMe measurement as described below, the rest snap frozen for subsequent RNA extraction.
as §2

MAT2A = experiment: Intestinal MAT2A expression in mice given SAMe or MTA in drinking water; format: in vivo
Protocol: FIG. 30. Effects of oral SAMe and MTA on colonic mRNA levels of MAT2A, MAT2 β, and cFLIPL. Mice were fed SAMe (150 to 450 mg/kg/d) or MTA (75 or 150 mg/kg/d) in drinking water for 6 days. Colonic mucosa was scrapped off and gene expression measured by real-time PCR.
as §4
Total RNA was isolated by the EZgeno total RNA isolation kit (Genemega, San Giego, Calif.), and subjected to reverse transcription (RT) by using M-MLV Reverse transcriptase (Invitrogen). 2 μl of RT product was subjected to quantitative real-time PCR analysis. The primers and TaqMan probes for MAT2A, MAT2β and Universal PCR Master Mix were purchased from ABI (Foster City, Calif.). Hypoxanthine phosphoribosyl-transferase 1 (HPRT1) and ubiquitin C (UBC) were used as housekeeping genes (48). The thermal profile consisted of 1 cycle at 95° C. for 15 minutes followed by 40 cycles at 95° C. for 15 seconds and at 60° C. for 1 minute. The expression of MAT2A and MAT2β was checked by normalizing the Ct of MAT2A and MAT2β to that of the control housekeeping gene (HPRT1 or UBC) (49). The delta Ct obtained was used to find the relative expression of MAT genes according to the formula: Relative expression=2·^ΔCt, where ΔCt=ΔCt of MAT genes in colon cancer or treated cells—ΔCt of MAT genes in normal colon or control cells.

MAT2β = experiment: Colonic MAT2β mRNA in mice fed SAMe or MTA; format: in vivo; conditions: 150 mg/kg/d SAMe, 6 days
Protocol: FIG. 30. Effects of oral SAMe and MTA on colonic mRNA levels of MAT2A, MAT2 β, and […]. Mice were fed SAMe (150 to 450 mg/kg/d) or MTA (75 or 150 mg/kg/d) in drinking water for 6 days. Colonic mucosa was scrapped off and gene expression measured by real-time PCR.

[6] = Tolerability of oral SAMe and MTA in mice; format: in vivo; conditions: oral in drinking water, 6 days; weight gain and water consumption similar to controls
Text: SAMe and MTA were made fresh daily. The amount of water intake, body weight, and animal behavior were closely monitored. After 6 days, animals were sacrificed, intestine was cut open along the longitudinal axis, and mucosa was stripped from the intestine (46). Mucosa was weighed and a portion processed for SAMe measurement as described below, the rest snap frozen for subsequent RNA extraction.

MAT II = MAT II (Rattus norvegicus, UniProt P18298); conditions: cited from earlier work
MAT II, sequence (P18298 whole entry): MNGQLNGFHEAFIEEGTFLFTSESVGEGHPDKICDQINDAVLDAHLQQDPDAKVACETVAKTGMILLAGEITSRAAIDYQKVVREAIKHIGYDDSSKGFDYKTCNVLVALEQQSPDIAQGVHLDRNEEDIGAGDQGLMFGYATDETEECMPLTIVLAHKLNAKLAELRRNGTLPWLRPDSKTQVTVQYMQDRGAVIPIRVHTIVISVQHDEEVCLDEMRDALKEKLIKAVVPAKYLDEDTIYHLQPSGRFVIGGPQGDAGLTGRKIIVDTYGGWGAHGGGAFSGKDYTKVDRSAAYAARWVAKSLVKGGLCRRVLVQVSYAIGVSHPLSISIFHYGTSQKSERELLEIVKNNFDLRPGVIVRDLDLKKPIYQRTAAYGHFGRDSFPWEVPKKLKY
MAT II, sequence (Q5U2R0 whole entry partner): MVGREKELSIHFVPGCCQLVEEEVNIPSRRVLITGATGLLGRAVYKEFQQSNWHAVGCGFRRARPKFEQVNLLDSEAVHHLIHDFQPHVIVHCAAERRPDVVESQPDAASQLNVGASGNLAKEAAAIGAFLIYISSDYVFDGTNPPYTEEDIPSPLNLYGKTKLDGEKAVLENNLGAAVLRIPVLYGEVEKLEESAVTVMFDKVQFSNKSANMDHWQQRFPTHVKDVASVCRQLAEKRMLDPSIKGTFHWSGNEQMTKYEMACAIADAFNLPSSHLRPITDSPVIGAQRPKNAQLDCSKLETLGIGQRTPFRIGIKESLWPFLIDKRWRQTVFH

MAT III = MAT III (Rattus norvegicus, UniProt P13444); conditions: cited from earlier work
MAT III, sequence (P13444 whole entry): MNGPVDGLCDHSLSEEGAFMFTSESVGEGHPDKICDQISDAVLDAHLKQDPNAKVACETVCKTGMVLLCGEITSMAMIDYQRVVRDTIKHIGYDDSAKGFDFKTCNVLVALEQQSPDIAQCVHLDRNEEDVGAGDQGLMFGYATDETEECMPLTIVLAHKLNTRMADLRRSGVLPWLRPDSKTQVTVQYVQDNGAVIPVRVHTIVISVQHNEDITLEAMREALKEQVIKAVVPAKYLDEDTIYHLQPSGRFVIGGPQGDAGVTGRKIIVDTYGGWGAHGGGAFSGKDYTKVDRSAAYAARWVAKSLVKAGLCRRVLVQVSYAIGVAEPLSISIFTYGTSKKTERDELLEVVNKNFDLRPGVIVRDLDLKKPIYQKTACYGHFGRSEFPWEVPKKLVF

[7] = 75 mg/kg/d in drinking water, six days
[8] = 150 mg/kg/d in drinking water, six days

For C[S+](CC[C@H](N)C(=O)O)C[C@H]1O[C@@H](n2cnc3c(N)ncnc32)[C@H](O)[C@@H]1O (stereo partly drawn) [SAMe, S-adenosylmethionine], the “increase of intracellular MTA levels after SAMe treatment” value (HT-29 cells [1]; 5 mM SAMe for 16 hrs) was 19 fold, the “intracellular MTA levels after SAMe treatment” value (HT-29 cells [1]; 5 mM SAMe for 16 hrs) was 1,906% and the MTA level (HT-29 cells [1]; 6 hrs, SAMe 2 mM) was 0.192 ± 0.036 nmol/mg protein. It also gave an SAMe level (HT-29 cells [1]; 6 hrs, SAMe 2 mM) of 1.44 ± 0.13 nmol/mg protein, an MTA level (HT-29 cells [1]; 6 hrs, SAMe 5 mM) of 0.354 ± 0.096 nmol/mg protein and an SAMe level (HT-29 cells [1]; 6 hrs, SAMe 5 mM) of 2.19 ± 0.21 nmol/mg protein. For the same compound, the MTA level (HT-29 cells [1]; 16 hrs, SAMe 2 mM) was 0.261 ± 0.035 nmol/mg protein, the SAMe level (HT-29 cells [1]; 16 hrs, SAMe 2 mM) was 1.28 ± 0.01 nmol/mg protein and the MTA level (HT-29 cells [1]; 16 hrs, SAMe 5 mM) was 0.934 ± 0.105 nmol/mg protein. It also gave an SAMe level (HT-29 cells [1]; 16 hrs, SAMe 5 mM) of 1.83 ± 0.01 nmol/mg protein, a Putrescine (HT-29 cells [2]; SAMe 2 mM) of 0.06 ± 0.01 nmol/mg protein and a Spermidine (HT-29 cells [2]; SAMe 2 mM) of 2.37 ± 0.02 nmol/mg protein. For the same compound, the Spermine (HT-29 cells [2]; SAMe 2 mM) was 12.39 ± 2.86 nmol/mg protein, the Putrescine (HT-29 cells [2]; SAMe 5 mM) was 0.01 ± 0.01 nmol/mg protein and the Spermidine (HT-29 cells [2]; SAMe 5 mM) was 1.90 ± 0.18 nmol/mg protein. The Spermine (HT-29 cells [2]; SAMe 5 mM) was 13.21 ± 2.58 nmol/mg protein, the ODC expression ([3]; SAMe 2 mM) was 1.1 ± 0.07 fold of control and the ODC expression ([3]; SAMe 5 mM) was 0.8 ± 0.04 fold of control. For the same compound, the SPD syn expression (SPD syn; SAMe 2 mM) was 1.1 ± 0.02 fold of control, the SPD syn expression (SPD syn; SAMe 5 mM) was 0.8 ± 0.02 fold of control and the SPM syn expression ([4]; SAMe 2 mM) was 1.1 ± 0.02 fold of control. The SPM syn expression ([4]; SAMe 5 mM) was 1.0 ± 0.01 fold of control, the “c-FLIP mRNA level” value (c-FLIP) was 70±2 % of control and the “Bcl-xL mRNA level” value (Bcl-xL) was “did not have an effect”. The “Bcl-xS mRNA level” value (Bcl-xS) was “no effect on Bcl-xS mRNA level”, the “SAMe level in proximal small intestine” value [5] was 800 % of control and the “increase in SAMe level in colonic mucosa” value [5] was ~200%. For the same compound, the “MAT2A expression, colon” value (MAT2A; [7]) was 128 ± 20 % of control MAT2A mRNA levels, the “MAT2A expression, proximal small intestine” value (MAT2A; [7]) was 99 ± 2 % of control MAT2A mRNA levels and the “MAT2A expression, colon” value (MAT2A; [8]) was 85 ± 10 % of control MAT2A mRNA levels. For the same compound, the “MAT2A expression, proximal small intestine” value (MAT2A; [8]) was 81 ± 4 % of control MAT2A mRNA levels, the “decrease of MAT2A expression in proximal small intestine” value (MAT2A; SAMe 150 mg/kg/d, MTA 75 mg/kg/d, six days) was 20% and the “inhibition in colonic MAT2A mRNA level” value (MAT2A; SAMe 450 mg/kg/d (highest dose), 6 days) was 75%. The “inhibition of MAT2β expression” value (MAT2β) was 50%, the tolerability / toxicity [6] was “well tolerated; also recorded: no apparent toxicity” and the “Inhibition by SAMe” value (MAT II; MAT II) was “Yes”. The IC50 (MAT II; read-out: IC50, inhibition of MAT II) was 60 µM, the “Inhibition by SAMe” value (MAT III; MAT III) was “No” and the “stimulation of MAT III” value (MAT III; at 500 μM SAMe) was “up to 8 fold”.

From patent publication US20100166727A1, “S-Adenosylmethionine And Methylthioadensosine In Chemoprevention And Treatment Of Colon Polyps And Cancer” (UNIVERSITY OF SOUTHERN CALIFORNIA, priority 2007, published 2010)
